This assay relates to Saccharomyces cerevisiae lifespan shortening, growth inhibition. The assay can be described thus: Saccharomyces cerevisiae growth inhibition potency – dose response (AID 849).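 Further: yeast growth read as optical density after two days at 30 degrees C.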

In PubChem BioAssay AID849 (SRMLSC, 2007) one finds IC50 data, which are given here for two molecules.

Activity calls are given as the source filed them. How the calls were made is not given here.

With `O/N=C/c1ccc(OCc2ccccc2)c(Br)c1`, the IC50 (as a rule, the concentration at which inhibition is half-maximal) is > 100 µM (inactive).

For the molecule `COc1ccc(-c2cc(-c3ccccc3O)[nH]n2)cc1`, the IC50 was > 100 µM (inactive).
